Assay: Plasma pharmacokinetics of FN-1501 and metabolite M3 in patients (LC/MS-MS, noncompartmental)
Assay type: in vivo, human
Conditions: for AUClast / AUC∞ / CL / Cmax / MRT∞ / Vss / Vz / t1/2 / tmax: mean; for Clearance: discussion; for Css,u: 260 mg
Procedure: For PK assessment, blood samples were collected pre-dose and 0.083, 0.25, 0.5, 1, 2, 4, 6, 8, 12, 24, and 48 h post-dose on Cycle 1, Day 1, and pre-dose on Cycle 2, Day 1. Plasma concentrations of FN-1501 and its metabolite M3 were analyzed at KCAS in Shawnee, KS, using a validated liquid chromatography/tandem mass spectrometry method. Primary pharmacokinetic (PK) endpoints were derived from FN-1501 and M3 concentration–time profiles and were analyzed using standard noncompartmental methods of analysis (Phoenix version 8).

Compound: CN1CCN(Cc2ccc(NC(=O)c3[nH]ncc3Nc3ncnc4[nH]ccc34)cc2)CC1 [FN-1501]
- AUClast (2.5 mg IV): 29.4 ± 11.9 ng·h/mL
- AUC∞ (2.5 mg IV): 32.4 ± 13.1 ng·h/mL
- CL (2.5 mg IV): 85.1 ± 26.8 L/h
- Cmax (2.5 mg IV): 12.0 ± 1.42 ng/mL
- MRT∞ (2.5 mg IV): 11.7 ± 4.59 h
- Vss (2.5 mg IV): 913 ± 206 L
- Vz (2.5 mg IV): 1510 ± 421 L
- t1/2 (2.5 mg IV): 12.8 ± 3.5 h
- tmax (2.5 mg IV): 1.2 ± 0.10 h
- AUClast (5 mg IV): 52.1 ± 18.2 ng·h/mL
- AUC∞ (5 mg IV): 56.5 ± 18.2 ng·h/mL
- CL (5 mg IV): 93.9 ± 25.2 L/h
- Cmax (5 mg IV): 25.5 ± 17.3 ng/mL
- MRT∞ (5 mg IV): 13.7 ± 3.74 h
- Vss (5 mg IV): 1320 ± 619 L
- Vz (5 mg IV): 2570 ± 932 L
- t1/2 (5 mg IV): 18.6 ± 2.34 h
- tmax (5 mg IV): 1.1 ± 0.02 h
- AUClast (10 mg IV): 119 ± 32.6 ng·h/mL
- AUC∞ (10 mg IV): 129 ± 41.3 ng·h/mL
- CL (10 mg IV): 84.7 ± 32.4 L/h
- Cmax (10 mg IV): 36.9 ± 17.5 ng/mL
- MRT∞ (10 mg IV): 12.5 ± 2.84 h
- Vss (10 mg IV): 1110 ± 664 L
- Vz (10 mg IV): 1720 ± 925 L
- t1/2 (10 mg IV): 13.7 ± 2.68 h
- tmax (10 mg IV): 1.2 ± 0.15 h
- AUClast (15 mg IV): 138 ± 10.8 ng·h/mL
- AUC∞ (15 mg IV): 153 ± 8.45 ng·h/mL
- CL (15 mg IV): 98.5 ± 5.29 L/h
- Cmax (15 mg IV): 35.6 ± 2.15 ng/mL
- MRT∞ (15 mg IV): 16.1 ± 2.64 h
- Vss (15 mg IV): 1600 ± 331 L
- Vz (15 mg IV): 2370 ± 536 L
- t1/2 (15 mg IV): 16.6 ± 3 h
- tmax (15 mg IV): 1.2 ± 0.14 h
- AUClast (22.5 mg IV): 251 ± 87.8 ng·h/mL
- AUC∞ (22.5 mg IV): 239 ± 55.4 ng·h/mL
- CL (22.5 mg IV): 96.9 ± 22.5 L/h
- Cmax (22.5 mg IV): 65.8 ± 24.5 ng/mL
- MRT∞ (22.5 mg IV): 16.4 ± 1.01 h
- Vss (22.5 mg IV): 1600 ± 466 L
- Vz (22.5 mg IV): 2570 ± 663 L
- t1/2 (22.5 mg IV): 18.3 ± 0.49 h
- tmax (22.5 mg IV): 1.2 ± 0.19 h
- AUClast (30 mg IV): 297 ± 55.8 ng·h/mL
- AUC∞ (30 mg IV): 341 ± 47.1 ng·h/mL
- CL (30 mg IV): 89.1 ± 13.3 L/h
- Cmax (30 mg IV): 87.8 ± 37.5 ng/mL
- MRT∞ (30 mg IV): 13.4 ± 8.49 h
- Vss (30 mg IV): 1130 ± 619 L
- Vz (30 mg IV): 1500 ± 786 L
- t1/2 (30 mg IV): 12.4 ± 7.43 h
- tmax (30 mg IV): 1.1 ± 0.11 h
- AUClast (40 mg IV): 437 ± 77.2 ng·h/mL
- AUC∞ (40 mg IV): 499 ± 122 ng·h/mL
- CL (40 mg IV): 83.6 ± 18.6 L/h
- Cmax (40 mg IV): 128 ± 41.9 ng/mL
- MRT∞ (40 mg IV): 18.3 ± 6.19 h
- Vss (40 mg IV): 1450 ± 185 L
- Vz (40 mg IV): 2160 ± 195 L
- t1/2 (40 mg IV): 18.7 ± 5.68 h
- tmax (40 mg IV): 1.1 ± 0.044 h
- AUClast (54 mg IV): 773 ± 180 ng·h/mL
- AUC∞ (54 mg IV): 868 ± 181 ng·h/mL
- CL (54 mg IV): 63.9 ± 12.4 L/h
- Cmax (54 mg IV): 323 ± 55.6 ng/mL
- MRT∞ (54 mg IV): 16.9 ± 7.34 h
- Vss (54 mg IV): 1080 ± 516 L
- Vz (54 mg IV): 1820 ± 740 L
- t1/2 (54 mg IV): 19.6 ± 6.44 h
- tmax (54 mg IV): 1.1 ± 0.05 h
- AUClast (72 mg IV): 742 ± 275 ng·h/mL
- AUC∞ (72 mg IV): 823 ± 292 ng·h/mL
- CL (72 mg IV): 94.2 ± 28.8 L/h
- Cmax (72 mg IV): 161 ± 67.7 ng/mL
- MRT∞ (72 mg IV): 16.8 ± 1.12 h
- Vss (72 mg IV): 1580 ± 489 L
- Vz (72 mg IV): 2370 ± 833 L
- t1/2 (72 mg IV): 17.2 ± 1.58 h
- tmax (72 mg IV): 1.3 ± 0.24 h
- AUClast (96 mg IV): 1420 ± 236 ng·h/mL
- AUC∞ (96 mg IV): 1650 ± 229 ng·h/mL
- CL (96 mg IV): 59.1 ± 8.20 L/h
- Cmax (96 mg IV): 494 ± 289 ng/mL
- MRT∞ (96 mg IV): 15.4 ± 6.58 h
- Vss (96 mg IV): 921 ± 425 L
- Vz (96 mg IV): 1410 ± 682 L
- t1/2 (96 mg IV): 16.1 ± 6.28 h
- tmax (96 mg IV): 1.1 ± 0.13 h
- AUClast (128 mg IV): 1730 ± 850 ng·h/mL
- AUC∞ (128 mg IV): 1980 ± 1120 ng·h/mL
- CL (128 mg IV): 79.9 ± 4.21 L/h
- Cmax (128 mg IV): 533 ± 344 ng/mL
- MRT∞ (128 mg IV): 18.1 ± 5.53 h
- Vss (128 mg IV): 1320 ± 473 L
- Vz (128 mg IV): 1790 ± 366 L
- t1/2 (128 mg IV): 17.8 ± 7.00 h
- tmax (128 mg IV): 1.1 ± 0.11 h
- AUClast (170 mg IV): 3340 ± 1500 ng·h/mL
- AUC∞ (170 mg IV): 3760 ± 1980 ng·h/mL
- CL (170 mg IV): 56.5 ± 31.5 L/h
- Cmax (170 mg IV): 955 ± 330 ng/mL
- MRT∞ (170 mg IV): 15.8 ± 7.89 h
- Vss (170 mg IV): 757 ± 218 L
- Vz (170 mg IV): 1120 ± 419 L
- t1/2 (170 mg IV): 15.0 ± 3.64 h
- tmax (170 mg IV): 1.3 ± 0.26 h
- Clearance (170 mg): 50 L/h
- AUClast (226 mg IV): 5620 ± 1390 ng·h/mL
- AUC∞ (226 mg IV): 6070 ± 1670 ng·h/mL
- CL (226 mg IV): 39.4 ± 0.17 L/h
- Cmax (226 mg IV): 1180 ± 232 ng/mL
- MRT∞ (226 mg IV): 15.2 ± 3.92 h
- Vss (226 mg IV): 569 ± 30.8 L
- Vz (226 mg IV): 787 ± 139 L
- t1/2 (226 mg IV): 14.2 ± 2.2 h
- tmax (226 mg IV): 1.2 ± 0.02 h
- Clearance (226 mg): 38 L/h
- Css,u (48 h dosing interval): 37 ng/mL
- Css,u (72 h dosing interval): 25 ng/mL
- AUC increase with dose (2.5 to 226 mg): greater than dose-proportional
- Cmax increase with dose (2.5 to 226 mg): roughly dose-proportional
- Drug concentration at end of dosing interval (48 h post-dose): approximately 20 ng/mL

Reference: PMC10177510, “A Multicenter, Open-Label, Phase I/II Study of FN-1501 in Patients with Advanced Solid Tumors” (Cancers, 2023)
